Key:
Pseudomonas aeruginosa [1] = assay: Inhibition of LasR-dependent quorum sensing activity in Pseudomonas aeruginosa MH602 harboring GFP-fused […] LasB promoter assessed as inhibition of 3-oxo-dodecanoyl HSL-induced GFP expression at 2 mM measured after 8 hrs by fluorescence assay relative to control
Pseudomonas aeruginosa [2] = assay: Inhibition of LasR-dependent quorum sensing activity in Pseudomonas aeruginosa MH602 harboring GFP-fused […] LasB promoter assessed as inhibition of 3-oxo-dodecanoyl HSL-induced GFP expression at 2 mM measured after 24 hrs by fluorescence assay relative to control
Pseudomonas aeruginosa [3] = assay: Inhibition of LasR-dependent quorum sensing activity in Pseudomonas aeruginosa MH602 harboring GFP-fused […] LasB promoter assessed as inhibition of 3-oxo-dodecanoyl HSL-induced GFP expression at 1 mM measured after 8 hrs by fluorescence assay relative to control
Pseudomonas aeruginosa [4] = assay: Inhibition of LasR-dependent quorum sensing activity in Pseudomonas aeruginosa MH602 harboring GFP-fused […] LasB promoter assessed as inhibition of 3-oxo-dodecanoyl HSL-induced GFP expression at 500 uM measured after 8 hrs by fluorescence assay relative to control
Pseudomonas aeruginosa [5] = assay: Inhibition of LasR-dependent quorum sensing activity in Pseudomonas aeruginosa MH602 harboring GFP-fused […] LasB promoter assessed as inhibition of 3-oxo-dodecanoyl HSL-induced GFP expression at 500 uM measured after 24 hrs by fluorescence assay relative to control
Escherichia coli [6] = assay: Inhibition of LuxR-dependent quorum sensing activity in Escherichia coli MT102 harboring pJBA132 assessed as inhibition of OHHL-induced GFP expression at 2 mM measured after 8 hrs by fluorescence assay relative to control
Escherichia coli [7] = assay: Inhibition of LuxR-dependent quorum sensing activity in Escherichia coli MT102 harboring pJBA132 assessed as inhibition of OHHL-induced GFP expression at 1 mM measured after 8 hrs by fluorescence assay relative to control
Escherichia coli [8] = assay: Inhibition of LuxR-dependent quorum sensing activity in Escherichia coli MT102 harboring pJBA132 assessed as inhibition of OHHL-induced GFP expression at 500 uM measured after 8 hrs by fluorescence assay relative to control
Pseudomonas aeruginosa [9] = assay: Growth inhibition of Pseudomonas aeruginosa MH602 at 2 mM after 8 hrs relative to control; details: MH602, 8 h, read-out: GI
Pseudomonas aeruginosa [10] = assay: Growth inhibition of Pseudomonas aeruginosa MH602 at 2 mM after 24 hrs relative to control; details: MH602, 24 h, read-out: GI
Pseudomonas aeruginosa [11] = assay: Growth inhibition of Pseudomonas aeruginosa MH602 at 1 mM after 8 hrs relative to control; details: MH602, 8 h, read-out: GI
Pseudomonas aeruginosa [12] = assay: Growth inhibition of Pseudomonas aeruginosa MH602 at 1 mM after 24 hrs relative to control; details: MH602, 24 h, read-out: GI
Pseudomonas aeruginosa [13] = assay: Growth inhibition of Pseudomonas aeruginosa MH602 at 500 uM after 8 hrs relative to control; details: MH602, 8 h, read-out: GI
Pseudomonas aeruginosa [14] = assay: Growth inhibition of Pseudomonas aeruginosa MH602 at 500 uM after 24 hrs relative to control; details: MH602, 24 h, read-out: GI
Escherichia coli [15] = assay: Growth inhibition of Escherichia coli MT102 at 2 mM after 8 hrs relative to control; details: MT102, 8 h, read-out: GI
Escherichia coli [16] = assay: Growth inhibition of Escherichia coli MT102 at 2 mM after 24 hrs relative to control; details: MT102, 24 h, read-out: GI
Escherichia coli [17] = assay: Growth inhibition of Escherichia coli MT102 at 1 mM after 8 hrs relative to control; details: MT102, 8 h, read-out: GI
Escherichia coli [18] = assay: Growth inhibition of Escherichia coli MT102 at 1 mM after 24 hrs relative to control; details: MT102, 24 h, read-out: GI
Escherichia coli [19] = assay: Growth inhibition of Escherichia coli MT102 at 500 uM after 8 hrs relative to control; details: MT102, 8 h, read-out: GI
Escherichia coli [20] = assay: Growth inhibition of Escherichia coli MT102 at 500 uM after 24 hrs relative to control; details: MT102, 24 h, read-out: GI
[21] = system: Pseudomonas aeruginosa PA14; assay: Inhibition of quorum sensing-regulated pyocyanin production in Pseudomonas aeruginosa PA14 at 2 mM after 24 hrs relative to control
Pseudomonas aeruginosa [22] = assay: Growth inhibition of Pseudomonas aeruginosa PA14 at 2 mM after 24 hrs relative to control; details: 2000 µM
[23] = system: Pseudomonas aeruginosa PA14; assay: Inhibition of quorum sensing-regulated biofilm formation in Pseudomonas aeruginosa PA14 at 2 mM after overnight incubation by crystal violet staining based assay relative to control
Escherichia coli [24] = assay: Inhibition of LuxR-dependent quorum sensing activity in Escherichia coli MT102 harboring pJBA132 assessed as inhibition of OHHL-induced GFP expression at 1 mM measured after 24 hrs by fluorescence assay relative to control
Escherichia coli [25] = assay: Inhibition of LuxR-dependent quorum sensing activity in Escherichia coli MT102 harboring pJBA132 assessed as inhibition of OHHL-induced GFP expression at 2 mM measured after 24 hrs by fluorescence assay relative to control
Pseudomonas aeruginosa [26] = assay: Inhibition of LasR-dependent quorum sensing activity in Pseudomonas aeruginosa MH602 harboring GFP-fused […] LasB promoter assessed as inhibition of 3-oxo-dodecanoyl HSL-induced GFP expression at 1 mM measured after 24 hrs by fluorescence assay relative to control

Row | SMILES | inhibition (Pseudomonas aeruginosa [1]) [%] | inhibition (Pseudomonas aeruginosa [2]) [%] | inhibition (Pseudomonas aeruginosa [3]) [%] | inhibition (Pseudomonas aeruginosa [4]) [%] | inhibition (Escherichia coli [6]) [%] | inhibition (Escherichia coli [7]) [%] | inhibition at 2000 µM (Pseudomonas aeruginosa [9]) [%] | inhibition at 2000 µM (Pseudomonas aeruginosa [10]) [%] | inhibition at 1000 µM (Pseudomonas aeruginosa [11]) [%] | inhibition at 1000 µM (Pseudomonas aeruginosa [12]) [%] | inhibition at 500 µM (Pseudomonas aeruginosa [13]) [%] | inhibition at 500 µM (Pseudomonas aeruginosa [14]) [%] | inhibition at 2000 µM (Escherichia coli [15]) [%] | inhibition at 2000 µM (Escherichia coli [16]) [%] | inhibition at 1000 µM (Escherichia coli [17]) [%] | inhibition at 1000 µM (Escherichia coli [18]) [%] | inhibition at 500 µM (Escherichia coli [19]) [%] | inhibition at 500 µM (Escherichia coli [20]) [%] | growth inhibition (GI) (Pseudomonas aeruginosa [22]) | inhibition [23] [%] | also measured
1 | CCCCCC(=O)CC(=O)N[C@H]1[C@H](OC(C)=O)O[C@H](COC(C)=O)[C@@H](OC(C)=O)[C@@H]1OC(C)=O | 18.9 | 2.5 | 8.9 | 4.9 | 7.9 | 2.1 | 0 | 0 | 0 | 0 | 0 | 4.2 | 9.2 | 20.8 | 2.3 | 13.2 | 0 | 2.3 | Non-Toxic | 19.5 | inhibition (Pseudomonas aeruginosa [5]): 3.3%; inhibition (Escherichia coli [8]): 7.7%; inhibition [21]: 1.9%
2 | O=C(Cc1ccc(F)cc1)N[C@@H]1[C@@H](O)[C@H](O)[C@@H](CO)O[C@H]1O | 31.3 | 2.9 | 29 | 9.2 | 12.6 | 3.6 | 0 | 0 | 0 | 3 | 0 | 1.4 | 0 | 15.8 | 0 | 8.8 | 0 | 19.4 | Non-Toxic | 5.1 | inhibition (Escherichia coli [24]): 2%; inhibition (Escherichia coli [8]): 2.4%; inhibition [21]: 6.6%
3 | O=C(Cc1ccc(Br)cc1)N[C@@H]1[C@@H](O)[C@H](O)[C@@H](CO)O[C@H]1O | 15.3 |  | 14.3 | 6.6 | 15.2 | 6.5 | 0 | 4 | 1.8 | 1.6 | 0 | 1.8 | 0 | 6.1 | 0 | 5.9 | 0 | 3 | Non-Toxic | 17.3 | inhibition (Pseudomonas aeruginosa [5]): 2.4%; inhibition (Escherichia coli [25]): 1.1%; inhibition (Escherichia coli [24]): 4.6%; inhibition (Escherichia coli [8]): 11.9%; inhibition [21]: 8.6%
4 | CCCCCCCCCC(=O)N[C@H]1[C@H](OC(C)=O)O[C@H](COC(C)=O)[C@@H](OC(C)=O)[C@@H]1OC(C)=O |  | 17.2 | 7 | 10.2 | 48.1 |  | 10.2 | 0 | 7.8 | 1.2 | 0 | 0 | 30.6 | 15.9 | 0 | 12.6 | 12.8 | 11.1 | Non-Toxic | 46.9 | inhibition (Pseudomonas aeruginosa [26]): 7.8%; inhibition (Escherichia coli [25]): 35.5%; inhibition (Escherichia coli [24]): 5.1%
5 | CC(=O)OC[C@H]1O[C@@H](OC(C)=O)[C@H](NC(=O)Cc2ccc(F)cc2)[C@@H](OC(C)=O)[C@@H]1OC(C)=O | 7.4 | 5.7 | 7.3 | 5.9 | 17.1 | 14 | 0 | 0 | 0 | 0 | 0 | 0 | 0 | 0 | 0 | 9.4 | 0 | 11.8 | Non-Toxic | 45.6 | inhibition (Pseudomonas aeruginosa [26]): 4.3%; inhibition (Escherichia coli [25]): 61.1%; inhibition (Escherichia coli [24]): 1.3%; inhibition (Escherichia coli [8]): 14.1%
